The structures appear in SMILES notation. Read-outs that look alike come from different tables or passages of the source.

For assay [1], the target named is T1, ITK (Homo sapiens, UniProt Q08881).
T1 construct: purchased Signalchem I13-11G-10
T1 sequence (Q08881 1-620): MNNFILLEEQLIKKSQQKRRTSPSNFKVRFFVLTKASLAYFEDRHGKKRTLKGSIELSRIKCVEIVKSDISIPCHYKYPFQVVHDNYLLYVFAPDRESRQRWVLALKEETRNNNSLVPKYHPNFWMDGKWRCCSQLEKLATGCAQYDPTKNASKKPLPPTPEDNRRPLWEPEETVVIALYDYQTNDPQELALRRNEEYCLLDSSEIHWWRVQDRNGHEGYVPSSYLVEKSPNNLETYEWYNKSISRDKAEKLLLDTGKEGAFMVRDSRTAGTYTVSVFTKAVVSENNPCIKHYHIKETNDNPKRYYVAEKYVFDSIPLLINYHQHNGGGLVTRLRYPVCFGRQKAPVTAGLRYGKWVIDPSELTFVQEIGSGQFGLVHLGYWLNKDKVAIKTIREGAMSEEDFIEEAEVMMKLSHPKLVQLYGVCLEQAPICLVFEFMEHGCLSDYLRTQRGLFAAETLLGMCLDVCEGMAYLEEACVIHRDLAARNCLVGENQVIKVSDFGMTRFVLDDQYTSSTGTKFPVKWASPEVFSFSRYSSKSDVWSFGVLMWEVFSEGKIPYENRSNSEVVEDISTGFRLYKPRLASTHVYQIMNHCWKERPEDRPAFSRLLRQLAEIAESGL
In words: Inhibitory activity against ITK, ADP-Glo Kinase system (Promega). It is filed as biochemical. Summed up:
(§1)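 ADP-Glo luminescent ADP detection with recombinant human ITK (4 ng/reaction) or BTK (10 ng/reaction) and poly(Glu4,Tyr1) substrate at 0.2 µg/µl. Buffer: Tris pH 7.5, MgCl2, MnCl2, BSA, DTT. ATP 1 mM or Km (BTK 10 µM, ITK 25 µM); 1% DMSO; 1 h at 30°C; IC50 from curve fit.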
(In ADP-Glo the light output rises with the ADP produced.)

Assay [2] has as its target T2, BTK (Homo sapiens, UniProt Q06187).
T2 construct: purchased Signalchem B10-10H
In words: Inhibitory activity against BTK, ADP-Glo Kinase system (Promega). It is filed as biochemical. The procedure, abridged:
as §1

Setting [3] is: 1mM ATP, read-out: ITK IC50(nM) 1mM ATP.
Where [4] appears, read: Km ATP (ITK: 25uM), read-out: ITK IC50(nM) Km ATP.
Setting [5] is: 1mM ATP, read-out: BTK IC50(nM) 1mM ATP.
Setting [6] is: Km ATP (BTK: 10 uM), read-out: BTK IC50(nM) Km ATP.

T2 sequence (Q06187 whole entry): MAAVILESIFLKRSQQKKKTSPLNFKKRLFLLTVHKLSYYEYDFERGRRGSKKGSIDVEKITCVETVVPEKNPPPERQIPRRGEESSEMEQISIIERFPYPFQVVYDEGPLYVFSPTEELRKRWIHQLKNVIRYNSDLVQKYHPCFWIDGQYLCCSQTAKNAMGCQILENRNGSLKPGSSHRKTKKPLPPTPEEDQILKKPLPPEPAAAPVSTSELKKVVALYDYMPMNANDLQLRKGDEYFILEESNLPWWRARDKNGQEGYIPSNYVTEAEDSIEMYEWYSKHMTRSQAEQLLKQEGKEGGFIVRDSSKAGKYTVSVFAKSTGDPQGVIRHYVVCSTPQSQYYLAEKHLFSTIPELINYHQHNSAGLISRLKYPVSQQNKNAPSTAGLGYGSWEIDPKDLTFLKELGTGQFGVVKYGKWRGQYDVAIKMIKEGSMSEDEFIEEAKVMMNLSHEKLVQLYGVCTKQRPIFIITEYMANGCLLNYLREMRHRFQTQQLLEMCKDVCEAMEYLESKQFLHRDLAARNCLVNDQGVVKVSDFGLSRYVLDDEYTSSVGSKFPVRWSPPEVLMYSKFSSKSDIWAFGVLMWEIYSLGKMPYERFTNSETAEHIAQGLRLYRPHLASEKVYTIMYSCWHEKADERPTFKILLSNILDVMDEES

In the case of `C=CC(=O)N1CC=C(c2nc(Nc3ncc(C)s3)cc3c2ccn3CC(F)F)CC1` [Example 12, 1-(4-(1-(2,2-difluoroethyl)-6-((5-methylthiazol-2-yl)amino)-1H-pyrrolo[3,2-c]pyridin-4-yl)-3,6-dihydropyridin-1(2H)-yl)prop-2-en-1-one], the 50% inhibitory concentration (IC50) in assay [1] (setting [3]), in assay [1] (setting [4]), in assay [2] (setting [5]) and in assay [2] (setting [6]) was ≤ 20 nM in each case.

Turning to `C=CC(=O)N1CC(C)(Oc2nc(Nc3ncc(C)s3)cc3c2ccn3CC(C)C)C1` [Example 119, 1-(3-((1-isobutyl-6-((5-methylthiazol-2-yl)amino)-1H-pyrrolo[3,2-c]pyridin-4-yl)oxy)-3-methylazetidin-1-yl)prop-2-en-1-one], the IC50 in assay [1] (setting [4]) and in assay [2] (setting [6]) was ≤ 20 nM throughout.

Regarding `C=CC(=O)N1C[C@@H](F)[C@H](Oc2nc(Nc3ncc(C)s3)cc3c2ccn3CC2CCCC2)C1` [Example 170, 1-((3R,4R)-3-((1-(cyclopentylmethyl)-6-((5-methylthiazol-2-yl)amino)-1H-pyrrolo[3,2-c]pyridin-4-yl)oxy)-4-fluoropyrrolidin-1-yl)prop-2-en-1-one], the concentration for half-maximal inhibition (IC50) in assay [1] (setting [3]) and in assay [2] (setting [5]) was ≤ 20 nM throughout.

`C=CC(=O)Nc1cc(-c2nc(Nc3ncc(C)s3)cc3c2ccn3CC2CC2)c(F)cc1F` [Example 66, N-(5-(1-(cyclopropylmethyl)-6-((5-methylthiazol-2-yl)amino)-1H-pyrrolo[3,2-c]pyridin-4-yl)-2,4-difluorophenyl)acrylamide]: the concentration for half-maximal inhibition (IC50) (commonly the midpoint of a concentration-inhibition curve) was 20 to 100 nM in assay [1] (setting [3]), ≤ 20 nM in assay [1] (setting [4]), ≤ 20 nM in assay [2] (setting [5]) and ≤ 20 nM in assay [2] (setting [6]).

On to `C=CC(=O)Nc1ccc(F)c(-c2nc(Nc3ncc(C)s3)cc3c2ccn3CC(F)F)c1` [Example 75, N-(3-(1-(2,2-difluoroethyl)-6-((5-methylthiazol-2-yl)amino)-1H-pyrrolo[3,2-c]pyridin-4-yl)-4-fluorophenyl)acrylamide], for which the half-inhibitory concentration (IC50) in assay [1] (setting [3]) is 100 to 500 nM; in assay [1] (setting [4]), ≤ 20 nM; in assay [2] (setting [5]) it was 20 to 100 nM; in assay [2] (setting [6]), ≤ 20 nM.

As for `C=CC(=O)Nc1cc(-c2nc(Nc3ncc(C)s3)cc3c2ccn3CC(F)(F)F)c(F)cc1F` [Example 77, N-(2,4-difluoro-5-(6-((5-methylthiazol-2-yl)amino)-1-(2,2,2-trifluoroethyl)-1H-pyrrolo[3,2-c]pyridin-4-yl)phenyl)acrylamide], the half-maximal inhibitory concentration (IC50) in assay [1] (setting [3]) was 20 to 100 nM; in assay [2] (setting [5]), ≤ 20 nM.

For the compound `C=CC(=O)N1CC=C(c2nc(Nc3ccncn3)cc3c2ccn3C(C)C)CC1` [Example 43, 1-(4-(1-isopropyl-6-(pyrimidin-4-ylamino)-1H-pyrrolo[3,2-c]pyridin-4-yl)-3,6-dihydropyridin-1(2H)-yl)prop-2-en-1-one], the IC50 is 20 to 100 nM in assay [1] (setting [3]) and ≤ 20 nM in assay [2] (setting [5]).

For the compound `C=CC(=O)N1CC[C@H](Oc2nc(Nc3ncc(C)s3)cc3c2ccn3CCCF)C1` [Example 190, (S)-1-(3-((1-(3-fluoropropyl)-6-((5-methylthiazol-2-yl)amino)-1H-pyrrolo[3,2-c]pyridin-4-yl)oxy)pyrrolidin-1-yl)prop-2-en-1-one], the concentration for half-maximal inhibition (IC50) in assay [1] (setting [3]) and in assay [2] (setting [5]) was ≤ 20 nM each time.

Take `C=CC(=O)N1CC=C(c2nc(Nc3ncc(C)s3)cc3c2ccn3CC2(C(F)(F)F)CC2)CC1` [Example 17, 1-(4-(6-((5-methylthiazol-2-yl)amino)-1-((1-(trifluoromethyl)cyclopropyl)methyl)-1H-pyrrolo[3,2-c]pyridin-4-yl)-3,6-dihydropyridin-1(2H)-yl)prop-2-en-1-one]: the IC50 in assay [1] (setting [4]) and in assay [2] (setting [6]) was ≤ 20 nM each time.

In the case of `C=CC(=O)N1CCC[C@H](Oc2nc(Nc3ncc(C)s3)cc3c2ccn3CC)C1` [Example 153, (S)-1-(3-((1-ethyl-6-((5-methylthiazol-2-yl)amino)-1H-pyrrolo[3,2-c]pyridin-4-yl)oxy)piperidin-1-yl)prop-2-en-1-one], the IC50 was 20 to 100 nM in assay [1] (setting [3]) and ≤ 20 nM in assay [2] (setting [5]).

As for `C=CC(=O)N1C[C@@H](Oc2nc(Nc3ncc(C)s3)cc3c2ccn3CC(C)C)C[C@H]1C` [Example 96, 1-((2R,4S)-4-((1-isobutyl-6-((5-methylthiazol-2-yl)amino)-1H-pyrrolo[3,2-c]pyridin-4-yl)oxy)-2-methylpyrrolidin-1-yl)prop-2-en-1-one], the IC50 in assay [1] (setting [3]) and in assay [2] (setting [5]) was ≤ 20 nM throughout.

As to `C=CC(=O)N1C[C@H](F)[C@H](Oc2nc(Nc3ncc(C)s3)cc3c2ccn3CC(C)CC)C1` (stereo partly drawn) [Example 171, 1-((3S,4R)-3-fluoro-4-((1-(2-methylbutyl)-6-((5-methylthiazol-2-yl)amino)-1H-pyrrolo[3,2-c]pyridin-4-yl)oxy)pyrrolidin-1-yl)prop-2-en-1-one], the half-maximal inhibitory concentration (IC50) in assay [1] (setting [3]) and in assay [2] (setting [5]) was ≤ 20 nM each time.

On to `C=CC(=O)N1CCC[C@H](Oc2nc(Nc3ncc(C)s3)cc3c2ccn3CC(C)C)C1` [Example 150, (S)-1-(3-((1-isobutyl-6-((5-methylthiazol-2-yl)amino)-1H-pyrrolo[3,2-c]pyridin-4-yl)oxy)piperidin-1-yl)prop-2-en-1-one], for which the values for the IC50 in assay [1] (setting [3]) and in assay [2] (setting [5]) were 20 to 100 nM and ≤ 20 nM, respectively.

`C=CC(=O)N1CC=C(c2nc(Nc3cc(F)ccn3)cc3c2ccn3C(C)C)CC1` [Example 47, 1-(4-(6-((4-fluoropyridin-2-yl)amino)-1-isopropyl-1H-pyrrolo[3,2-c]pyridin-4-yl)-3,6-dihydropyridin-1(2H)-yl)prop-2-en-1-one]: the 50% inhibitory concentration (IC50) was 20 to 100 nM in assay [1] (setting [3]) and ≤ 20 nM in assay [2] (setting [5]).

With `C=CC(=O)N1CC[C@H](Oc2nc(Nc3cc(C(F)(F)F)ncn3)cc3c2ccn3C(C)C)C1` [Example 95, (S)-1-(3-((1-isopropyl-6-((6-(trifluoromethyl)pyrimidin-4-yl)amino)-1H-pyrrolo[3,2-c]pyridin-4-yl)oxy)pyrrolidin-1-yl)prop-2-en-1-one], the IC50 in assay [1] (setting [3]) was 100 to 500 nM; in assay [2] (setting [5]), ≤ 20 nM.

In the case of `C=CC(=O)N1C2C=C(c3nc(Nc4ncc(C)s4)cc4c3ccn4CC(C)C)CC1CCC2` (stereo not shown) [Example 38, 1-(3-(1-isobutyl-6-((5-methylthiazol-2-yl)amino)-1H-pyrrolo[3,2-c]pyridin-4-yl)-9-azabicyclo[3.3.1]non-2-en-9-yl)prop-2-en-1-one], the IC50 in assay [1] (setting [3]) and in assay [2] (setting [5]) was ≤ 20 nM each time.

As to `C=CC(=O)N1CCC[C@H](Oc2nc(Nc3ncc(C)s3)cc3c2ccn3CC2CC2)C1` [Example 149, (S)-1-(3-((1-(cyclopropylmethyl)-6-((5-methylthiazol-2-yl)amino)-1H-pyrrolo[3,2-c]pyridin-4-yl)oxy)piperidin-1-yl)prop-2-en-1-one], the IC50 in assay [1] (setting [3]) and in assay [2] (setting [5]) was ≤ 20 nM in each case.

With `C=CC(=O)N1CC=C(c2nc(Nc3cc(C)ccn3)cc3c2ccn3C(C)C)CC1` [Example 49, 1-(4-(1-isopropyl-6-((4-methylpyridin-2-yl)amino)-1H-pyrrolo[3,2-c]pyridin-4-yl)-3,6-dihydropyridin-1(2H)-yl)prop-2-en-1-one], the half-inhibitory concentration (IC50) in assay [1] (setting [3]) lay within 100 to 500 nM; in assay [1] (setting [4]), 20 to 100 nM; in assay [2] (setting [5]), 100 to 500 nM; in assay [2] (setting [6]) it was 20 to 100 nM.

`C=CC(=O)N1CCC[C@H]1COc1nc(Nc2ncc(C)s2)cc2c1ccn2C(C)C` [Example 219, (S)-1-(2-(((1-isopropyl-6-((5-methylthiazol-2-yl)amino)-1H-pyrrolo[3,2-c]pyridin-4-yl)oxy)methyl)pyrrolidin-1-yl)prop-2-en-1-one]: the IC50 is > 500 nM in assay [1] (setting [3]) and 20 to 100 nM in assay [2] (setting [5]).

As to `C=CC(=O)N1CC[C@@H](Oc2nc(Nc3ncc(C)s3)cc3c2ccn3CC2CC2)C1` [Example 144, (R)-1-(3-((1-(cyclopropylmethyl)-6-((5-methylthiazol-2-yl)amino)-1H-pyrrolo[3,2-c]pyridin-4-yl)oxy)pyrrolidin-1-yl)prop-2-en-1-one], the half-inhibitory concentration (IC50) in assay [1] (setting [3]) and in assay [2] (setting [5]) was > 500 nM in each case.

For `C=CC(=O)N1C[C@@H](Oc2nc(Nc3ncc(C)s3)cc3c2ccn3C(C)C)C[C@H]1C` [Example 87, 1-((2R,4S)-4-((1-isopropyl-6-((5-methylthiazol-2-yl)amino)-1H-pyrrolo[3,2-c]pyridin-4-yl)oxy)-2-methylpyrrolidin-1-yl)prop-2-en-1-one], the IC50 in assay [1] (setting [3]) and in assay [2] (setting [5]) was ≤ 20 nM in each case.

On to `C=CC(=O)N1CC[C@H](Oc2nc(Nc3ncc(C)s3)cc3c2ccn3Cc2ccccn2)C1` [Example 117, (S)-1-(3-((6-((5-methylthiazol-2-yl)amino)-1-(pyridin-2-ylmethyl)-1H-pyrrolo[3,2-c]pyridin-4-yl)oxy)pyrrolidin-1-yl)prop-2-en-1-one], for which the IC50 in assay [1] (setting [4]) and in assay [2] (setting [6]) was ≤ 20 nM in each case.

For the origin of these results see EP4707277A1, “NOVEL HETEROCYCLIC AMINE DERIVATIVES AND PHARMACEUTICAL COMPOSITION COMPRISING SAME” (Daewoong Pharmaceutical Co., Ltd., priority 2023, dated 2024).
